Measured values from paper PMC11535186, “Exploring the Anti-Inflammatory Potential of Ajuga integrifolia Leaves Extract: In Vitro Dual Inhibition of Cyclooxygenase and Lipoxygenase Enzymes” (Advances in Pharmacological and Pharmaceutical Sciences, 2024).

Biological target: 5-LOX (Glycine max, UniProt P08170)
Experiment: 5-LOX inhibitory assay (linoleic acid substrate, 234 nm)
Type: biochemical
Conditions: read-out: % inhibition 5-LOX
Protocol: The inhibition of LOX was evaluated according to the method described by Malterud with slight modifications. A 100 μL enzyme solution was prepared in boric acid buffer (0.2 M; pH 9.0). To assess the inhibitory effect, 25 μL of each test extract (20, 40, 60, 80, and 100 μg/mL) was added to the enzyme solution. The mixture was then incubated at room temperature for 3 min. […] IC50 values were calculated by regression analysis using Microsoft Excel involving five concentrations. The percentage inhibition of enzyme activity and IC50 values are presented as the mean values ± SD.

Sequence of 5-LOX (P08170 whole entry): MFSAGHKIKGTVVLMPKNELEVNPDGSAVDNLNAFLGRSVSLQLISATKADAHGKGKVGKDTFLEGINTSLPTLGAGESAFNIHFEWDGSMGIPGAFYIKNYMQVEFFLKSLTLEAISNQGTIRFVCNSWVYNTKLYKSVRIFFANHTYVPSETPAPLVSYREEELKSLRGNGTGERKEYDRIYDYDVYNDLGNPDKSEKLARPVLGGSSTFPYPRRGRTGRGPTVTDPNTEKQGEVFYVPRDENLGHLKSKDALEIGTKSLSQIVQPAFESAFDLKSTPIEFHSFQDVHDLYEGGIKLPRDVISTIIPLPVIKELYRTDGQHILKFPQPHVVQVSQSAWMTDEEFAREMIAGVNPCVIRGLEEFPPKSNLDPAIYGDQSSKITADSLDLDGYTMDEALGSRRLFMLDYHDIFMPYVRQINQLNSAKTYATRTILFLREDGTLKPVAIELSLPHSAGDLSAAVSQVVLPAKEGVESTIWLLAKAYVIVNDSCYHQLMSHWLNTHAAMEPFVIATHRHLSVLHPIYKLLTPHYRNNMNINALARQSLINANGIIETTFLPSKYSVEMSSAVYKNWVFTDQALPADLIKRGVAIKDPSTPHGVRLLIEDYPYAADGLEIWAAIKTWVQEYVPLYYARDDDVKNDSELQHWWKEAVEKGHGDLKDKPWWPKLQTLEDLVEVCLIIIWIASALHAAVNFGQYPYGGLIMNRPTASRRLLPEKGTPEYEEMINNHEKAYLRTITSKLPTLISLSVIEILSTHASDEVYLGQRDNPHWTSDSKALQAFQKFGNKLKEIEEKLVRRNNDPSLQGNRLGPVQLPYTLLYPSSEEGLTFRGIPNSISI

Compound `CC(c1cc2ccccc2s1)N(O)C(N)=O` (centres unmarked) [Zileuton] has an inhibition at 20 µg/mL of 26.1%, an inhibition at 40 µg/mL of 47% and an inhibition at 60 µg/mL of 51.9%. It also gave an inhibition at 80 µg/mL of 64.2% and an inhibition at 100 µg/mL of 70.4%.
